Results on 3 compounds are retold here after patent US7820645B2, “Crystalline forms” (AstraZeneca AB, priority 2006, dated 2010).

As a reminder, the solubility is the dissolved amount per volume that the medium holds. As a reminder, the IC50 is the concentration that gives 50% inhibition.

Data set [1] is described as follows: Solubility in organic solvents (gravimetric, saturated solution from one-day slurry). It counts as physicochemical. The note with it: for solubility at 1 day: organic solvent or mixture, thermodynamic from solid, 22° C. As for the experimental part:
An excess of Compound A from Example 3 above was slurried in ethyl acetate for one day. A proportion of the saturated solution was then withdrawn through a 0.5 micrometer filter to a pre-weighted E-flask. The E-flask was weighed and then opened & evaporated in air, and then dried in vacuum at 40° C. until the weight was constant. The weight of the solution, the weight of dry substance, the weight of solvent and the volume of solvent were determined (using the density of ethyl acetate at 22° C.=0.90 g/ml).
An excess of Compound B from Example 2 above was slurried in isopropanol for one day in a closed vessel. A proportion of the saturated solution was then withdrawn through a 0.5 micrometer filter to a pre-weighted E-flask. The E-flask was weighed and then opened & evaporated in air, and then dried in vacuum at 70° C. until the weight was constant. The weight of the solution, the weight of dry substance, the weight of solvent and the volume of solvent were determined (using the density of isopropanol at 22° C.=0.79 g/ml).
An excess of Compound A from Example 6 above was slurried in isopropanol for one day in a closed vessel. A proportion of the saturated solution was then withdrawn through a 0.5 micrometer filter to a pre-weighted E-flask. The E-flask was weighed and then opened & evaporated in air, and then dried in vacuum at 70° C. until the weight was constant. The weight of the solution, the weight of dry substance, the weight of solvent and the volume of solvent were determined (using the density of isopropanol at 22° C.=0.79 g/ml).
An excess of Compound A from Example 6 above was slurried in ethanol for one day in a closed vessel. A proportion of the saturated solution was then withdrawn through a 0.5 micrometer filter to a pre-weighed E-flask. The E-flask was weighed and then opened and evaporated in air, and then dried in vacuum at 40-50° C. until the weight was constant. The weight of the solution, the weight of dry substance, the weight of solvent and the volume of solvent were determined (using the density of ethanol at 22° C.=0.79 g/ml).
An excess of Compound A from Example 6 above was slurried in methanol for one day in a closed vessel. A proportion of the saturated solution was then withdrawn through a 0.5 micrometer filter to a pre-weighted E-flask. The E-flask was weighed and then opened & evaporated in air, and then dried in vacuum at 40-50° C. until the weight was constant. The weight of the solution, the weight of dry substance, the weight of solvent and the volume of solvent were determined (using the density of methanol at 22° C.=0.79 g/ml).
An excess of Compound A from Example 6 above was slurried in acetone for one day in a closed vessel. A proportion of the saturated solution was then withdrawn through a 0.5 micrometer filter to a pre-weighted E-flask. The E-flask was weighed and then opened & evaporated in air, and then dried in vacuum at 70° C. until the weight was constant. The weight of the solution, the weight of dry substance, the weight of solvent and the volume of solvent were determined (using the density of acetone at 22° C.=0.82 g/ml).

Data set [2] addresses T1, thrombin (Homo sapiens, UniProt P00734). Conditions: Test A of WO 02/44145; disclosed in Example 46 of WO 02/44145; cited from earlier work.
Data set [3] deals with T1, thrombin. Conditions: Test D of WO 02/44145; disclosed in Example 47 of WO 02/44145; cited from earlier work.
Setting [4] is: isopropanol, Compound B from Example 2 or Compound A anhydrate from Example 6.
Setting [5] is: isopropanol, Compound B from Example 2 or Compound A anhydrate from Example 6, read-out: solubility (mg per ml isopropanol).

≈ marks a conversion by molar mass, not a printed value. Read-outs that look alike come from different tables or passages of the source.

With `CO/N=C(\N)c1ccc(CNC(=O)[C@@H]2CCN2C(=O)[C@H](O)c2cc(Cl)cc(OC(F)F)c2)cc1` [Compound A, Ph(3-Cl)(5-OCHF2)—(R)CH(OH)C(O)-Aze-Pab(OMe)], the “solubility as weight %” value was 33 % w/w in data set [1] (acetone, Compound A from Example 6); 10 % w/w in data set [1] (ethanol, Compound A from Example 6); 4 % w/w in data set [1] (ethyl acetate, Compound A from Example 3); 2 % w/w in data set [1] (setting [4]); 45 % w/w in data set [1] (methanol, Compound A from Example 6). Further, the solubility at 1 day in data set [1] (acetone, Compound A from Example 6, read-out: solubility (mg per ml acetone)) was determined as 398 mg/mL (≈ 801 mM); in data set [1] (ethanol, Compound A from Example 6, read-out: solubility (mg per ml ethanol)) it was 87 mg/mL (≈ 175 mM); in data set [1] (ethyl acetate, Compound A from Example 3, read-out: solubility (mg per ml ethyl acetate)), 36 mg/mL (≈ 72.4 mM); in data set [1] (setting [5]), 15 mg/mL (≈ 30.2 mM); in data set [1] (methanol, Compound A from Example 6, read-out: solubility (mg per ml methanol)), 655 mg/mL (≈ 1320 mM).

For `N/C(=N\O)c1ccc(CNC(=O)[C@@H]2CCN2C(=O)[C@H](O)c2cc(Cl)cc(OC(F)F)c2)cc1` [Compound B, Ph(3-Cl)(5-OCHF2)—(R)CH(OH)C(O)-Aze-Pab(OH)], the “solubility as weight %” value in data set [1] (setting [4]) is recorded as 0.4 % w/w. Besides, the solubility at 1 day in data set [1] (setting [5]) worked out at 3 mg/mL (≈ 6.21 mM).

Regarding `N=C(N)c1ccc(CNC(=O)[C@@H]2CCN2C(=O)[C@H](O)c2cc(Cl)cc(OC(F)F)c2)cc1` [Compound C], the IC50 at thrombin [2] was < 20 nM; at thrombin [3] it was < 1000 nM.
